Assay results reported in US9993494B2, “Compositions and methods for treating fibrotic disease” (eFFECTOR Therapeutics, Inc., priority 2014, dated 2018).

Test system: normal human lung fibroblasts
Assay: Ribosomal profiling: translational efficiency in TGFβ-treated fibroblasts
Format: cell-based
Procedure: Ribosomal profiling allows for measurement of changes in transcription and translation on a genome-wide basis accompanying TGFβ-dependent transformation of fibroblasts to myofibroblasts. Ribosomal profiles of the TGFβ-treated fibroblasts from Example 1 (about 6×10^6 cells/10 cm plate) were prepared and analyzed for changes in translational efficiencies with respect to potential disease-associated cellular changes accompanying this TGFβ-induced transformation.
Briefly, cells were washed with cold PBS supplemented with cycloheximide and lysed with 1× mammalian cell lysis buffer for 10 minutes on ice. Lysates were clarified by centrifugation for 10 minutes at 14,000 rpm and supernatants were collected. Cell lysates were processed to generate ribosomal protected fragments and total mRNA according to the instructions included with the ARTseq Ribosome Profiling Kit (Illumina, San Diego, Calif.). Sequencing of total RNA (RNA) and of ribosome-protected fragments of RNA (RPF) was carried out using RNA-Seq methodology according to the manufacturer's instructions (Illumina). To analyze the ribosomal profiles, RNA-Seq reads were processed with tools from the FASTX-Toolkit (fastq_quality_trimmer, fastx_clipper and fastx_trimmer). Unprocessed and processed reads were evaluated for a variety of quality measures using FastQC, and processed reads were mapped to the human genome using TopHat (see, e.g., Trapnell et al., Bioinformatics 25:1105, 2009). Gene-by-gene assessment of the number of fragments strictly and uniquely mapping to the coding region of each gene was conducted using HTSeq-count, a component of the HTSeq package. […] Genes with low counts in either RPF or RNA were excluded from differential analyses. Pathway and network analyses of differential data were conducted using Ingenuity Pathway Analysis (IPA).

For `CC(C)n1nc(-c2cc3cc(O)ccc3[nH]2)c2c(N)ncnc21` [PP242], the “renormalizing the translational profile of RHOBTB3” value (ENSG00000164292, TGFβ-treated fibroblasts) was “− (− = <0.9)”, the “renormalizing the translational profile of HCN1” value (ENSG00000164588, TGFβ-treated fibroblasts) was “− (− = <0.9)” and the “renormalizing the translational profile of RPL36AL” value (ENSG00000165502, TGFβ-treated fibroblasts) was “− (− = <0.9)”. For the same compound, the “renormalizing the translational profile of RPL27A” value (ENSG00000166441, TGFβ-treated fibroblasts) was “− (− = <0.9)”, the “renormalizing the translational profile of RP11-382A20.3.1” value (ENSG00000166503, TGFβ-treated fibroblasts) was “− (− = <0.9)” and the “renormalizing the translational profile of ANKDD1A” value (ENSG00000166839, TGFβ-treated fibroblasts) was “+ (+ = 0.9 to 1.5)”. The “renormalizing the translational profile of RPL13” value (ENSG00000167526, TGFβ-treated fibroblasts) was “− (− = <0.9)”, the “renormalizing the translational profile of EEF2” value (ENSG00000167658, TGFβ-treated fibroblasts) was “+ (+ = 0.9 to 1.5)” and the “renormalizing the translational profile of CA5B” value (ENSG00000169239, TGFβ-treated fibroblasts) was “+ (+ = 0.9 to 1.5)”. The “renormalizing the translational profile of MURC” value (ENSG00000170681, TGFβ-treated fibroblasts) was “− (− = <0.9)”, the “renormalizing the translational profile of HTRA3” value (ENSG00000170801, TGFβ-treated fibroblasts) was “− (− = <0.9)” and the “renormalizing the translational profile of PDE7B” value (ENSG00000171408, TGFβ-treated fibroblasts) was “− (− = <0.9)”. For the same compound, the “renormalizing the translational profile of LPAR3” value (ENSG00000171517, TGFβ-treated fibroblasts) was “− (− = <0.9)”, the “renormalizing the translational profile of CTPS” value (ENSG00000171793, TGFβ-treated fibroblasts) was “− (− = <0.9)” and the “renormalizing the translational profile of QARS” value (ENSG00000172053, TGFβ-treated fibroblasts) was “− (− = <0.9)”. The “renormalizing the translational profile of RPL38” value (ENSG00000172809, TGFβ-treated fibroblasts) was “− (− = <0.9)”, the “renormalizing the translational profile of MRPL45” value (ENSG00000174100, TGFβ-treated fibroblasts) was “+ (+ = 0.9 to 1.5)” and the “renormalizing the translational profile of RPL4” value (ENSG00000174444, TGFβ-treated fibroblasts) was “− (− = <0.9)”. For the same compound, the “renormalizing the translational profile of RPL15” value (ENSG00000174748, TGFβ-treated fibroblasts) was “− (− = <0.9)”, the “renormalizing the translational profile of DES” value (ENSG00000175084, TGFβ-treated fibroblasts) was “− (− = <0.9)” and the “renormalizing the translational profile of EIF3F” value (ENSG00000175390, TGFβ-treated fibroblasts) was “− (− = <0.9)”. The “renormalizing the translational profile of CLCF1” value (ENSG00000175505, TGFβ-treated fibroblasts) was “− (− = <0.9)”, the “renormalizing the translational profile of AMIGO3” value (ENSG00000176020, TGFβ-treated fibroblasts) was “− (− = <0.9)” and the “renormalizing the translational profile of C14orf49” value (ENSG00000176438, TGFβ-treated fibroblasts) was “− (− = <0.9)”. For the same compound, the “renormalizing the translational profile of RPLP2” value (ENSG00000177600, TGFβ-treated fibroblasts) was “− (− = <0.9)”, the “renormalizing the translational profile of IMPDH2” value (ENSG00000178035, TGFβ-treated fibroblasts) was “− (− = <0.9)” and the “renormalizing the translational profile of DNAJC22” value (ENSG00000178401, TGFβ-treated fibroblasts) was “+ (+ = 0.9 to 1.5)”. The “renormalizing the translational profile of RPL35A” value (ENSG00000182899, TGFβ-treated fibroblasts) was “+ (+ = 0.9 to 1.5)”, the “renormalizing the translational profile of LENG9” value (ENSG00000182909, TGFβ-treated fibroblasts) was “− (− = <0.9)” and the “renormalizing the translational profile of C22orf32” value (ENSG00000183172, TGFβ-treated fibroblasts) was “− (− = <0.9)”. The “renormalizing the translational profile of NPW” value (ENSG00000183971, TGFβ-treated fibroblasts) was “− (− = <0.9)”, the “renormalizing the translational profile of PDE4B” value (ENSG00000184588, TGFβ-treated fibroblasts) was “− (− = <0.9)” and the “renormalizing the translational profile of ROBO2” value (ENSG00000185008, TGFβ-treated fibroblasts) was “− (− = <0.9)”. The “renormalizing the translational profile of PTCH1” value (ENSG00000185920, TGFβ-treated fibroblasts) was “− (− = <0.9)”, the “renormalizing the translational profile of POLR1D” value (ENSG00000186184, TGFβ-treated fibroblasts) was “− (− = <0.9)” and the “renormalizing the translational profile of DYNC2H1” value (ENSG00000187240, TGFβ-treated fibroblasts) was “− (− = <0.9)”. The “renormalizing the translational profile of RPL14” value (ENSG00000188846, TGFβ-treated fibroblasts) was “− (− = <0.9)”, the “renormalizing the translational profile of LRRK2” value (ENSG00000188906, TGFβ-treated fibroblasts) was “− (− = <0.9)” and the “renormalizing the translational profile of NACA” value (ENSG00000196531, TGFβ-treated fibroblasts) was “− (− = <0.9)”. The “renormalizing the translational profile of LAMB3” value (ENSG00000196878, TGFβ-treated fibroblasts) was “− (− = <0.9)”, the “renormalizing the translational profile of PCBP2” value (ENSG00000197111, TGFβ-treated fibroblasts) was “− (− = <0.9)” and the “renormalizing the translational profile of MAP3K5” value (ENSG00000197442, TGFβ-treated fibroblasts) was “− (− = <0.9)”. The “renormalizing the translational profile of RPL37A” value (ENSG00000197756, TGFβ-treated fibroblasts) was “− (− = <0.9)”, the “renormalizing the translational profile of RPL12” value (ENSG00000197958, TGFβ-treated fibroblasts) was “− (− = <0.9)” and the “renormalizing the translational profile of LPAR1” value (ENSG00000198121, TGFβ-treated fibroblasts) was “− (− = <0.9)”. For the same compound, the “renormalizing the translational profile of RPL23A” value (ENSG00000198242, TGFβ-treated fibroblasts) was “− (− = <0.9)”, the “renormalizing the translational profile of PLN” value (ENSG00000198523, TGFβ-treated fibroblasts) was “− (− = <0.9)” and the “renormalizing the translational profile of RPL10A” value (ENSG00000198755, TGFβ-treated fibroblasts) was “− (− = <0.9)”. For the same compound, the “renormalizing the translational profile of CES1” value (ENSG00000198848, TGFβ-treated fibroblasts) was “− (− = <0.9)”, the “renormalizing the translational profile of RPL39” value (ENSG00000198918, TGFβ-treated fibroblasts) was “− (− = <0.9)” and the “renormalizing the translational profile of CARD16” value (ENSG00000204397, TGFβ-treated fibroblasts) was “− (− = <0.9)”. The “renormalizing the translational profile of GNB2L1” value (ENSG00000204628, TGFβ-treated fibroblasts) was “+ (+ = 0.9 to 1.5)”, the “renormalizing the translational profile of RPL17” value (ENSG00000215472, TGFβ-treated fibroblasts) was “− (− = <0.9)” and the “renormalizing the translational profile of RPL41” value (ENSG00000229117, TGFβ-treated fibroblasts) was “− (− = <0.9)”. For the same compound, the “renormalizing the translational profile of ARPC1A” value (ENSG00000241685, TGFβ-treated fibroblasts) was “− (− = <0.9)”, the “renormalizing the translational profile of CHCHD10” value (ENSG00000250479, TGFβ-treated fibroblasts) was “+++ (+++ = >2.0)” and the “renormalizing the translational profile of EEF1G” value (ENSG00000254772, TGFβ-treated fibroblasts) was “− (− = <0.9)”. The “number of the 141 eIF2 pathway genes that moved toward normal” value (TGFβ and PP242, of 141 genes, FIG. 8) was 104, the “number of the 12 eIF2 signaling pathway genes that moved toward the untransformed, normal state” value (TGFβ and PP242, out of 12 genes, FIG. 7) was 11 and the “effect in renormalizing the translational profile of the gene” value (gene RPS2 (ENSG00000140988), TGFβ-treated fibroblasts) was “− (− = <0.9)”. For the same compound, the “effect in renormalizing the translational profile of the gene” value (gene RPS3 (ENSG00000149273), TGFβ-treated fibroblasts) was “− (− = <0.9)”, the “effect in renormalizing the translational profile of the gene” value (gene RPS3A (ENSG00000145425), TGFβ-treated fibroblasts) was “− (− = <0.9)” and the “effect in renormalizing the translational profile of the gene” value (gene RPS4X (ENSG00000198034), TGFβ-treated fibroblasts) was “− (− = <0.9)”. The “effect in renormalizing the translational profile of the gene” value (gene RPS4Y1 (ENSG00000129824), TGFβ-treated fibroblasts) was “− (− = <0.9)”, the “effect in renormalizing the translational profile of the gene” value (gene RPS5 (ENSG00000083845), TGFβ-treated fibroblasts) was “− (− = <0.9)” and the “effect in renormalizing the translational profile of the gene” value (gene RPS6 (ENSG00000137154), TGFβ-treated fibroblasts) was “− (− = <0.9)”.
